# Patent US9051342B2 (priority 2004, dated 2015)
# “And” between values parts separate entries of the source, which are not always exact repeats. Identical values can stand only once.
row,melting point,SMILES
1,160 to 161 °C,"COc1ccc(-n2ccc(-c3cccc(C(=O)O)c3)n2)cc1 [Compound 76, 3-[1-(4-Methoxy-phenyl)-1H-pyrazol-3-yl]-benzoic acid]"
2,153 to 154 °C,"COc1cccc(-n2ccc(-c3cccc(C(=O)O)c3)n2)c1 [Compound 77, 3-[1-(3-Methoxy-phenyl)-1H-pyrazol-3-yl]-benzoic acid]"
3,164 to 166 °C,"N#Cc1cccc(-c2ccn(-c3cccc(C(=O)O)c3)n2)c1 [Compound 78, 3-[3-(3-Cyano-phenyl)-pyrazol-1-yl]-benzoic acid]"
4,180 to 182 °C,"O=C(O)c1cccc(-n2ccc(-c3ccccc3)n2)c1 [Compound 79, 3-(3-Phenyl-pyrazol-1-yl)-benzoic acid]"
5,230 to 235 °C,"O=C(O)c1cccc(-n2ccc(-c3ccc(Cl)cc3)n2)c1 [Compound 80, 3-[3-(4-Chloro-phenyl)-pyrazol-1-yl]-benzoic acid]"
6,210 to 211 °C,"COc1ccc(-c2ccn(-c3cccc(C(=O)O)c3)n2)cc1 [Compound 81, 3-[3-(4-Methoxy-phenyl)-pyrazol-1-yl]-benzoic acid]"
7,230 to 235 °C,"O=C(O)c1cccc(-n2ccc(-c3ccc(N4CCOCC4)cc3)n2)c1 [Compound 82, 3-[3-(4-Morpholin-4-yl-phenyl)-pyrazol-1-yl]-benzoic acid]"
8,205 to 206 °C,"O=C(O)c1cccc(-c2cnn(-c3ccc(Cl)cc3)c2)c1 [Compound 83, 3-[1-(4-Chloro-phenyl)-1H-pyrazol-4-yl]-benzoic acid]"
9,225 to 226 °C,"O=C(O)c1cccc(-n2cc(-c3ccccc3F)cn2)c1 [Compound 84, 3-[4-(2-Fluoro-phenyl)-pyrazol-1-yl]-benzoic acid]"
10,260 to 261 °C,"O=C(O)c1ccc(-n2cc(-c3ccccc3F)cn2)cc1 [Compound 85, 4-[4-(2-Fluoro-phenyl)-pyrazol-1-yl]-benzoic acid]"
11,157 to 158 °C,"O=C(O)c1cccc(-c2ccn(-c3ccccc3F)n2)c1 [Compound 86, 3-[1-(2-Fluoro-phenyl)-1H-pyrazol-3-yl]-benzoic acid]"
12,210 to 215 °C,"O=C(O)c1cccc(-c2ccn(-c3ccc4c(c3)OCO4)n2)c1 [Compound 87, 3-(1-Benzo[1,3]dioxol-5-yl-1H-pyrazol-3-yl)-benzoic acid]"
13,177 to 178 °C,"O=C(O)c1cccc(-n2cc(-c3cccc(Br)c3)cn2)c1 [Compound 88, 3-[4-(3-Bromo-phenyl)-pyrazol-1-yl]-benzoic acid]"
14,247 to 248 °C,"O=C(O)c1ccc(-n2cc(-c3cccc(Br)c3)cn2)cc1 [Compound 89, 4-[4-(3-Bromo-phenyl)-pyrazol-1-yl]-benzoic acid]"
15,181 to 182 °C,"Cc1cccc(-c2cnn(-c3cccc(C(=O)O)c3)c2)c1 [Compound 90, 3-(4-m-Tolyl-pyrazol-1-yl)-benzoic acid]"
16,251 to 252 °C,"Cc1cccc(-c2cnn(-c3ccc(C(=O)O)cc3)c2)c1 [Compound 91, 4-(4-m-Tolyl-pyrazol-1-yl)-benzoic acid]"
17,237 to 240 °C,"O=C(O)c1cccc(-n2ccc(-c3ccc(F)cc3)n2)c1 [Compound 92, 3-[3-(4-Fluoro-phenyl)-pyrazol-1-yl]-benzoic acid]"
18,173 to 174 °C,"O=C(O)c1cccc(-n2ccc(-c3cccc(F)c3)n2)c1 [Compound 93, 3-[3-(3-Fluoro-phenyl)-pyrazol-1-yl]-benzoic acid]"

# The next lines start with the molecule.
row,SMILES,melting point
1,"O=C(O)c1cccc(-c2ncn(-c3ccccn3)n2)c1 [Compound 36, 3-(1-Pyridin-2-yl-1H-[1,2,4]triazol-3-yl)-benzoic acid]",241 to 244 °C
2,"O=C(O)c1cccc(-c2ncn(-c3ccccc3)n2)c1 [Compound 37, 3-(1-Phenyl-1H-[1,2,4]triazol-3-yl)-benzoic acid]",257 to 259 °C
3,"Cc1ccc(-n2cnc(-c3cccc(C(=O)O)c3)n2)cc1Cl [Compound 38, 3-[1-(3-Chloro-4-methyl-phenyl)-1H-[1,2,4]triazol-3-yl]-benzoic acid]",269 to 272 °C
4,"Cc1cccc(-n2cnc(-c3cccc(C(=O)O)c3)n2)c1 [Compound 39, 3-(1-m-Tolyl-1H-[1,2,4]triazol-3-yl)-benzoic acid]",223 to 225 °C
5,"Cc1ccccc1-n1cnc(-c2cccc(C(=O)O)c2)n1 [Compound 40, 3-(1-o-Tolyl-1H-[1,2,4]triazol-3-yl)-benzoic acid]",209 to 211 °C
6,"Cc1ccccc1-n1nc(-c2cccc(C(=O)O)c2)[nH]c1=O [Compound 41, 3-(5-Oxo-1-o-tolyl-4,5-dihydro-1H-[1,2,4]triazol-3-yl)-benzoic acid]",> 310 °C
7,"O=C(O)c1cccc(-c2nn(-c3cccc(F)c3)c(=O)[nH]2)c1 [Compound 42, 3-[1-(3-Fluoro-phenyl)-5-oxo-4,5-dihydro-1H-[1,2,4]triazol-3-yl]-benzoic acid]",> 310 °C
8,"O=C(O)c1cccc(-c2ncn(-c3ccc(N4CCCC4=O)cc3)n2)c1 [Compound 43, 3-{1-[4-(2-Oxo-pyrrolidin-1-yl)-phenyl]-1H-[1,2,4]triazol-3-yl}-benzoic acid]",270 to 273 °C
9,"O=C(O)c1cccc(-c2ncn(-c3ccc(N4CCC4=O)cc3)n2)c1 [Compound 44, 3-{1-[4-(2-Oxo-azetidin-1-yl)-phenyl]-1H-[1,2,4]triazol-3-yl}-benzoic acid]",295 to 297 °C
10,"COc1ccc(-c2cnn(-c3cccc(C(=O)O)c3)c2)cc1 [Compound 47, 3-[4-(4-Methoxy-phenyl)-pyrazol-1-yl]-benzoic acid]",238 to 239 °C
11,"Cc1ccc(-c2cnn(-c3cccc(C(=O)O)c3)c2)cc1 [Compound 48, 3-(4-p-Tolyl-pyrazol-1-yl)-benzoic acid]",208 to 209 °C
12,"O=C(O)c1cccc(-n2cc(-c3ccc(Cl)cc3)cn2)c1 [Compound 49, 3-[4-(4-Chloro-phenyl)-pyrazol-1-yl]-benzoic acid]",253 to 254 °C
13,"COc1ccc(-c2cnn(-c3ccc(C(=O)O)cc3)c2)cc1 [Compound 50, 4-[4-(4-Methoxy-phenyl)-pyrazol-1-yl]-benzoic acid]",289 to 290 °C
14,"Cc1ccc(-c2cnn(-c3ccc(C(=O)O)cc3)c2)cc1 [Compound 51, 4-(4-p-Tolyl-pyrazol-1-yl)-benzoic acid]",298 to 299 °C
15,"O=C(O)c1ccc(-n2cc(-c3ccc(Cl)cc3)cn2)cc1 [Compound 52, 4-[4-(4-Chloro-phenyl)-pyrazol-1-yl]-benzoic acid]",300 to 302 °C
16,"COc1ccc(-n2cc(-c3cccc(C(=O)O)n3)cn2)cc1 [Compound 53, 6-[1-(4-Methoxy-phenyl)-1H-pyrazol-4-yl]-pyridine-2-carboxylic acid]",122 to 123 °C
17,"O=C(O)c1cccc(-c2cnn(-c3ccc(Cl)cc3)c2)n1 [Compound 54, 6-[1-(4-Chloro-phenyl)-1H-pyrazol-4-yl]-pyridine-2-carboxylic acid]",194 to 196 °C

row,SMILES,melting point
1,"COc1ccc(-n2cc(-c3cc(C(=O)O)ccc3[N+](=O)[O-])cn2)cc1 [Compound 55, 3-[1-(4-Methoxy-phenyl)-1H-pyrazol-4-yl]-4-nitro-benzoic acid]",249 to 250 °C
2,"O=C(O)c1ccc([N+](=O)[O-])c(-c2cnn(-c3ccc(Cl)cc3)c2)c1 [Compound 56, 3-[1-(4-Chloro-phenyl)-1H-pyrazol-4-yl]-4-nitro-benzoic acid]",270 to 271 °C
3,"N#Cc1cccc(-c2ccn(-c3ccccc3)n2)c1 [Compound 57, 3-(1-Phenyl-1H-pyrazol-3-yl)-benzonitrile]",78 to 80 °C
4,"COc1ccc(-n2ccc(-c3cccc(C#N)c3)n2)cc1 [Compound 58, 3-[1-(4-Methoxy-phenyl)-1H-pyrazol-3-yl]-benzonitrile]",110 to 112 °C
5,"COc1cccc(-n2ccc(-c3cccc(C#N)c3)n2)c1 [Compound 59, 3-[1-(3-Methoxy-phenyl)-1H-pyrazol-3-yl]-benzonitrile]",100 to 101 °C
6,"N#Cc1cccc(-c2ccn(-c3ccc4c(c3)OCO4)n2)c1 [Compound 60, 3-(1-Benzo[1,3]dioxol-5-yl-1H-pyrazol-3-yl)-benzonitrile]",144 to 147 °C
7,"N#Cc1cccc(-c2ccn(-c3ccc(OC(F)(F)F)cc3)n2)c1 [Compound 61, 3-[1-(4-Trifluoromethoxy-phenyl)-1H-pyrazol-3-yl]-benzonitrile]",83 to 84 °C
8,"N#Cc1cccc(-c2ccn(-c3ccc(C(F)(F)F)cc3)n2)c1 [Compound 62, 3-[1-(4-Trifluoromethyl-phenyl)-1H-pyrazol-3-yl]-benzonitrile]",70 to 74 °C
9,"N#Cc1cccc(-c2ccn(-c3ccc(F)c(F)c3)n2)c1 [Compound 63, 3-[1-(3,4-Difluoro-phenyl)-1H-pyrazol-3-yl]-benzonitrile]",142 to 145 °C
10,"COC(=O)c1cccc(-n2ccc(-c3cccc(C#N)c3)n2)c1 [Compound 64, 3-[3-(3-Cyano-phenyl)-pyrazol-1-yl]-benzoic acid methyl ester]",143 to 145 °C
11,"O=C(O)c1cccc(-c2ccn(-c3ccccc3)n2)c1 [Compound 65, 3-(1-Phenyl-1H-pyrazol-3-yl)-benzoic acid]",202 to 204 °C
12,"O=C(O)c1cccc(-c2ccn(-c3ccc(C(F)(F)F)cc3)n2)c1 [Compound 67, 3-[1-(4-Trifluoromethyl-phenyl)-1H-pyrazol-3-yl]-benzoic acid]",225 to 227 °C
13,"O=C(O)c1cccc(-c2ccn(-c3ccc(F)c(F)c3)n2)c1 [Compound 68, 3-[1-(3,4-Difluoro-phenyl)-1H-pyrazol-3-yl]-benzoic acid]",240 to 244 °C
14,"O=C(O)c1cccc(-c2ccn(-c3cccc(C(=O)O)c3)n2)c1 [Compound 69, 1,3-Bis(3-carboxyphenyl)-1H-pyrazole]",> 300 °C
15,"O=C(O)c1cccc(-c2ccn(-c3ccc(O)cc3)n2)c1 [Compound 74, 3-[1-(4-Hydroxy-phenyl)-1H-pyrazol-3-yl]-benzoic acid]",228 to 230 °C
16,"O=C(O)c1cccc(-c2ccn(-c3cccc(O)c3)n2)c1 [Compound 75, 3-[1-(3-Hydroxy-phenyl)-1H-pyrazol-3-yl]-benzoic acid]",178 to 190 °C and 178 to 179 °C
